According to ChEMBL document CHEMBL1201862, “PubChem BioAssay data set” (2004):
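Each compound was tested at five concentrations against cells in 96-well plates for 48 hours. GI50 marks 50% less growth.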 Calls of active or inactive are those of the source. No stated cut-off is given here; in the data, active = GI50 up to about 1.1 µM and inactive = higher.

Assays:
Experiment in all cases: NCI-60 cell line screen, 48 h
[1] = tested on: COLO 205
[2] = tested on: SK-OV-3
[3] = tested on: NCI-H226
[4] = tested on: NCI/ADR-RES
[5] = tested on: TK-10
[6] = tested on: MDA-MB-231
[7] = tested on: M14
[8] = tested on: HCT-15
[9] = tested on: PC-3
[10] = tested on: OVCAR-3
[11] = tested on: UO-31
[12] = tested on: NCI-H522
[13] = tested on: A549
[14] = tested on: OVCAR-4
[15] = tested on: UACC-62
[16] = tested on: SR
[17] = tested on: Hs-578T
[18] = tested on: MDA-MB-435
[19] = tested on: KM12
[20] = tested on: SN12C
[21] = tested on: HT-29
[22] = tested on: 786-0
[23] = tested on: UACC-257
[24] = tested on: SF-539
[25] = tested on: CAKI-1
[26] = tested on: HCC 2998
[27] = tested on: CCRF-CEM
[28] = tested on: MOLT-4
[29] = tested on: A498
[30] = tested on: NCI-H460
[31] = tested on: IGROV-1
[32] = tested on: EKVX
[33] = tested on: DU-145
[34] = tested on: MCF7
[35] = tested on: OVCAR-5
[36] = tested on: RXF 393
[37] = tested on: SW-620
[38] = tested on: HOP-92
[39] = tested on: RPMI-8226
[40] = tested on: NCI-H23
[41] = tested on: MDA-N
[42] = tested on: HL-60
[43] = tested on: K562
[44] = tested on: LOX IMVI
[45] = tested on: SNB-75
[46] = tested on: SF-268
[47] = tested on: Malme-3M
[48] = tested on: BT-549
[49] = tested on: HOP-62
[50] = tested on: SK-MEL-2
[51] = tested on: SNB-19
[52] = tested on: SF-295
[53] = tested on: T47D
[54] = tested on: U-251
[55] = tested on: ACHN
[56] = tested on: SK-MEL-5
[57] = tested on: HCT-116
[58] = tested on: OVCAR-8
[59] = tested on: SK-MEL-28

Measured: GI50

CCCCc1ccc(Nc2nc(Cl)c3ncn(COCCOC(C)=O)c3n2)cc1
16.7 µM: [8]
inactive: [1] 23.5 µM | [2] 19.6 µM | [3] 21.5 µM | [4] 20 µM | [5] 20.3 µM | [6] 15.3 µM | [7] 18 µM | [9] 16.8 µM | [10] 20.2 µM | [11] 16 µM | [12] 13.6 µM | [13] 20.8 µM | [14] 33.7 µM | [15] 17.3 µM | [16] 21.2 µM | [17] 21.7 µM | [18] 18.5 µM | [19] 20.4 µM | [20] 21.8 µM | [21] 17.3 µM | [22] 16 µM | [23] 19.8 µM | [24] 19.5 µM | [25] 1.89 µM | [26] 11.9 µM | [27] 35.6 µM | [28] 21.2 µM | [29] 25.5 µM | [30] 17.6 µM | [31] 15.7 µM | [32] 6.19 µM | [33] 16 µM | [34] 27.4 µM | [35] 17.9 µM | [36] 16.9 µM | [37] 21.1 µM | [38] 2.06 µM | [39] 18.2 µM | [40] 16.2 µM | [41] 18.8 µM | [42] 20.9 µM | [43] 6.04 µM | [44] 14.8 µM | [45] 24.5 µM | [46] 19.4 µM | [47] 17.3 µM | [48] 16.5 µM | [49] 17.1 µM | [50] 14.8 µM | [51] 19.9 µM | [52] 17.4 µM | [53] 22.8 µM | [54] 18.3 µM | [55] 17.5 µM | [56] 16.7 µM | [57] 17.6 µM | [58] 18.5 µM

CCOC(=O)c1sc2nc(SC)nc3c2c1NCN3c1ccc2c(c1)OCO2
inactive: [1] 35.2 µM | [2] 10.7 µM | [3] 25.8 µM | [4] 8.77 µM | [5] 17.2 µM | [6] 13.4 µM | [7] 15.5 µM | [9] 14.3 µM | [10] 10.8 µM | [11] 15.5 µM | [12] 31.1 µM | [13] 7.83 µM | [14] 5.2 µM | [15] 12.2 µM | [16] 39.3 µM | [17] 3.58 µM | [18] 14.8 µM | [19] > 100 µM | [20] 39.4 µM | [21] 31.3 µM | [22] 4.34 µM | [23] > 100 µM | [24] 21.6 µM | [25] 58.1 µM | [26] 44.7 µM | [27] 14.6 µM | [59] 8.04 µM | [28] 26.1 µM | [29] 33.3 µM | [31] 26.1 µM | [32] 42.2 µM | [33] 12.1 µM | [34] 16.7 µM | [35] 97.5 µM | [36] 3.14 µM | [37] 17.2 µM | [38] 12.5 µM | [39] 24.2 µM | [40] 41.9 µM | [41] 44.3 µM | [42] 52 µM | [43] 35 µM | [44] 23.8 µM | [46] 3.42 µM | [47] 17.9 µM | [48] 30.1 µM | [49] 5.93 µM | [50] 18.3 µM | [51] 11.4 µM | [52] 10.9 µM | [53] 18.9 µM | [54] 7.03 µM | [55] 5.94 µM | [56] 67.5 µM | [57] 27.5 µM | [58] 5.41 µM
52.5 µM: [8]
